Tests used:
[1] = Selectivity index, ratio of IC50 for BALB/c mouse macrophages to IC50 for Leishmania amazonensis MHOM/BR/76/LTB-012
M14 = assay: Cytotoxicity against human M14 cells; format: functional
HT-29 = assay: Cytotoxicity against human HT-29 cells; format: functional
[2] = Selectivity index, ratio of IC50 for african green monkey Vero cells to IC50 for Trypanosoma cruzi tulahuen C4
Leishmania amazonensis = assay: Antileishmanial activity against Leishmania amazonensis MHOM/BR/76/LTB-012 amastigotes infected BALB/c mouse macrophages after 48 hrs by MTT assay; format: functional, organism-based; settings: MHOM/BR/76/LTB-012, 48 h
Trypanosoma cruzi = assay: Antitrypanosomal activity against Trypanosoma cruzi tulahuen C4 trypomastigotes infected in african green monkey Vero cells assessed as CPRG cleavage after 120 hrs by microplate reader; format: functional, organism-based
Vero = assay: Cytotoxicity against african green monkey Vero cells after 72 hrs by MTS assay; settings: Chlorocebus sabaeus, Vero, 72 h
NCI-H460 = assay: Cytotoxicity against human NCI-H460 cells; format: functional
K562 = assay: Cytotoxicity against human K562 cells; format: functional
[3] = Cytotoxicity against BALB/c mouse macrophages after 48 hrs by trypan blue dye exclusion method; format: cell-based; settings: Macrophage
[4] = tested on: Mycobacterium tuberculosis; assay: Antitubercular activity against Mycobacterium tuberculosis H37Rv ATCC 27294 after 7 days by microplate alamar blue assay; format: functional; settings: H37Rv ATCC 27294, 168 h
DU-145 = assay: Cytotoxicity against human DU145 cells; format: functional
MCF7 = assay: Cytotoxicity against human MCF7 cells; format: functional
[5] = Cytotoxicity against BALB mouse 3T3 cells; format: cell-based; settings: BALB 3T3 cells

Compound | Ratio IC50 [1] | GI50 (M14) [µM] | GI50 (HT-29) [µM] | selectivity ratio ([2]; Vero cells) | IC50 (Leishmania amazonensis) [µM] | IC50 (Trypanosoma cruzi) [µM] | IC50 (Vero) [µM] | GI50 (NCI-H460) [µM] | GI50 (K562) [µM] | IC50 [3] [µM] | MIC [4] [µM] | GI50 (DU-145) [µM] | GI50 (MCF7) [µM] | GI50 [5] [µM] | selectivity ratio ([2]; vero)
C=CCOc1cc(/C=N/Nc2ncnc3sc4c(c23)CCCC4)cc(OCC=C)c1Br | 0.7 | 12.8 | 3.9 | 0.4 | 5.3 | 15.4 | 6 | 3.1 | 3.9 | 3.5 | > 200 | < 2 | 3.8 | < 2 | 
Fc1ccccc1/C=N/Nc1ncnc2sc3c(c12)CCCC3 | 3.1 | > 250 | > 250 | 1.7 | 3.3 | 10.8 | 18.4 | > 250 | 81.2 | 10.2 | > 300 | > 250 | > 250 | > 250 | 
COc1cc(/C=N/Nc2ncnc3sc4c(c23)CCCC4)cc(OC)c1O | 3 | > 170 | > 170 |  | 40.8 | > 25 |  | > 170 | > 170 | 121 | > 250 | 27.2 | > 170 | 27.3 | 
COc1cc(/C=N/Nc2ncnc3sc4c(c23)CCCC4)cc(OC)c1OC | 1.2 | 15.6 | 11.4 |  | 7.2 | > 25 |  | 28.3 | 4.7 | 8.9 | > 250 | 22.5 | 10.5 | 22.5 | 
CC(C)(C)c1ccc(/C=N/Nc2ncnc3sc4c(c23)CCCC4)cc1 | 3.8 | 30.3 | 15.7 | 1.2 | 1.7 | 11.2 | 13.7 | 6.4 | 6.4 | 6.6 | > 250 | 21.9 | 6.3 | 23.2 | 
C[C@@H]1[C@H](O)[C@@H](C)/C=C/C=C/C=C/C=C/C=C/C=C/C=C/[C@H](O[C@@H]2O[C@H](C)[C@@H](O)[C@H](N)[C@@H]2O)C[C@@H]2O[C@](O)(C[C@@H](O)C[C@@H](O)[C@H](O)CC[C@@H](O)C[C@@H](O)CC(=O)O[C@H]1C)C[C@H](O)[C@H]2C(=O)O [AMPHOTERICIN B] | 54 |  |  |  |  |  |  |  |  | 5.4 |  |  |  |  | 
O=[N+]([O-])c1ccccc1/C=N/Nc1ncnc2sc3c(c12)CCCC3 |  | > 170 | > 170 |  | 108 | > 25 |  | 52.9 | > 170 | > 200 | > 250 | 103 | 52 | > 170 | 
O=c1[nH]cc(F)c(=O)[nH]1 [FLUOROURACIL] |  | 32.4 |  |  |  |  |  | 2.3 | 89.9 |  |  | 5.3 | 4.5 | < 3 | 
C(=N\Nc1ncnc2sc3c(c12)CCCC3)/c1cccc2ccccc12 | 1.3 | 18.4 | 6.2 | 0.2 | 12.7 | 13 | 2.8 | 19.9 | 4.7 | 16.6 | > 250 | 24.1 | 6.3 | 16.7 | 
CC1CS(=O)(=O)CCN1/N=C/c1ccc([N+](=O)[O-])o1 (stereo not given) [NIFURTIMOX] |  |  |  |  |  | 4.5 | 94 |  |  |  |  |  |  |  | 20.8
Cc1ccc(/C=N/Nc2ncnc3sc4c(c23)CCCC4)cc1 | 0.5 | > 170 | > 170 |  | 42.6 | > 25 |  | 133 | 7.1 | 19.4 | > 250 | > 170 | 12.9 | 37.5 | 
C(=N\Nc1ncnc2sc3c(c12)CCCC3)/c1ccc2ccccc2c1 | 0.4 | 35.2 | 19.4 | 1.1 | 39 | 13.3 | 13.9 | 20.8 | 6.2 | 15.9 | > 250 | 24.1 | 9.3 | 27.9 | 
COc1cc(/C=N/Nc2ncnc3sc4c(c23)CCCC4)ccc1O |  |  |  |  | 7.2 |  |  |  |  |  |  |  |  |  | 
N#Cc1ccc(/C=N/Nc2ncnc3sc4c(c23)CCCC4)cc1 | 5 | > 170 | > 170 |  | 32.3 | > 25 |  | > 170 | > 170 | 162 | > 300 | > 170 | 102 | 150 | 
COc1ccc(/C=N/Nc2ncnc3sc4c(c23)CCCC4)c(OC)c1 | 4.3 | 94.4 | 20 | 1.8 | 33.2 | 18.5 | 32.6 | 29.5 | 7.9 | 144 | > 250 | 20 | 21.1 | 19.9 | 
c1ccc(C(=NNc2ncnc3sc4c(c23)CCCC4)c2ccccc2)cc1 | 0.9 | > 170 | > 170 |  | 182 | > 25 |  | > 170 | > 170 | 156 | > 250 | > 170 | > 170 | > 170 | 
O=[N+]([O-])c1ccc(/C=N/Nc2ncnc3sc4c(c23)CCCC4)cc1 | 5.2 | > 170 | > 170 |  | 38.5 | > 25 |  | > 170 | > 170 | 199 | > 250 | > 170 | > 170 | > 170 | 
CC(C)c1ccc(/C=N/Nc2ncnc3sc4c(c23)CCCC4)cc1 | 2.3 | 17.8 | 5.9 | 0.5 | 3.6 | 5.2 | 2.9 | 5.9 | 4.1 | 8.4 | > 250 | 10.8 | 5.2 | 9.4 | 
C(=N\Nc1ncnc2sc3c(c12)CCCC3)/c1ccncc1 | 0.7 | > 150 | 153 |  | 233 | > 25 |  | 169 | 109 | 154 | > 300 | 83.9 | 83.9 | 83.2 | 

Reference: ChEMBL document CHEMBL1156236, “Trypanoside, anti-tuberculosis, leishmanicidal, and cytotoxic activities of tetrahydrobenzothienopyrimidines” (Bioorg Med Chem, 2010)
